Data from EP0677039B1, “CYCLOBUTANE DERIVATIVES AS INHIBITORS OF […] SYNTHETASE AND PROTEIN […]” (Abbott Laboratories, priority 1993, dated 1995).

Target: T1, Rat liver microsomal squalene synthetase (Rattus norvegicus, UniProt Q02769)
T1 construct: Rat liver microsome, the source of enzyme; from tissue; host or cells: rat liver microsomes
T1 sequence (Q02769 1-416): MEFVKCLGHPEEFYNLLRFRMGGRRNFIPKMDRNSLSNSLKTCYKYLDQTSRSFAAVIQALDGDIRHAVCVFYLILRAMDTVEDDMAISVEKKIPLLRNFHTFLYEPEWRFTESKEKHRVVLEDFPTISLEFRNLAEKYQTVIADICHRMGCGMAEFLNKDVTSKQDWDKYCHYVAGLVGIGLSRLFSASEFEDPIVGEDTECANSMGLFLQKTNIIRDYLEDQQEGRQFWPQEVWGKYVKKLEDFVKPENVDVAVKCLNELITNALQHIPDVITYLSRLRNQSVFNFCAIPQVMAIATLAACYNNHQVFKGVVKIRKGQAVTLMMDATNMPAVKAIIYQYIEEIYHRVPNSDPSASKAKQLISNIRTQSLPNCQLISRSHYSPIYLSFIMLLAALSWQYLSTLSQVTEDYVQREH
Experiment: In vitro inhibition of squalene synthetase
Assay type: biochemical
Details: 10 µM test compound; rat liver microsomes, labelled farnesyl pyrophosphate, 10 minutes at 37 °C; compared to controls with no test compound
Protocol: In vitro inhibition of squalene synthetase may be measured by the following procedure. Rat liver microsomal squalene synthetase activity was measured using farnesyl pyrophosphate as a substrate and quantitating squalene synthesis using labelled farnesyl pyrophosphate and counting the squalene formed. Rat liver microsome, the source of enzyme, was prepared according to the method of Gillies, P. J., et al., Exp. Molc. Pathol. 44: 329-339 (1986), a modification of the procedure of Erickson, S. K., and Cooper, A. D., Metabolism, 29: 991-996 (1980). […] Oxygen was excluded from the closed incubation tube by degassing with nitrogen. The reaction was terminated by the addition of ethanolic KOH and after degassing with N2, the microsomal membranes were solubilized by heating at 60 °C for 30 minutes. The squalene was extracted into hexane, and the squalene was separated from all other radioactive molecules by passage over an activated alumina column. […] The per cent inhibition at a dose of 10 µM (or 1 µM) compared to controls with no test compound was determined. […]

inhibition at 10 µM	Compound
72%	CCCN(Cc1ccc(Oc2cccc(C)c2)cc1)C(=O)C1C(C(=O)O)C(C(=O)O)C1C(=O)N(CCC)Cc1ccc(Oc2cccc(C)c2)cc1 (stereo not drawn) [Example 87B, (1α,2β,3β,4α)-1,2-Di{N-propyl-[4-(3'-methyl)phenoxybenzyl]aminocarbonyl}cyclobutane-3,4-dicarboxylic acid]
64%	O=C(O)[C@H]1[C@H](C(=O)O)[C@H](C(=O)N(CCCc2ccccc2)Cc2ccc(Oc3ccccc3)cc2)[C@H]1C(=O)N(CCCc1ccccc1)Cc1ccc(Oc2ccccc2)cc1 [Example 57, (1α,2β,3β,4α)-1,2-Di[N-(4-phenoxybenzyl)-N-(3-phenyl-1-propyl)aminocarbonyl]cyclobutane-3,4-dicarboxylic acid]
80%	CCCN(Cc1ccc(Oc2ccccc2)cc1)C(=O)[C@@H]1[C@H](C(N)=O)[C@@H](C(=O)O)[C@H]1C(=O)N(CCC)Cc1ccc(Oc2ccccc2)cc1 (relative stereo) [Example 99B, (1α,2β,3β,4α)-3-(Amino)carbonyl-1,2-di[N-propyl-N-(4-phenoxybenzyl)aminocarbonyl]cyclobutane-4-carboxylic Acid]
77%	CCCN(Cc1ccc(Oc2ccccc2)cc1)C(=O)C1C(C=NO)C(C(=O)O)C1C(=O)N(CCC)Cc1ccc(Oc2ccccc2)cc1 (stereo not drawn) [Example 71C, (1α,2β,3β,4α)-1,2-Di[N-propyl-N-(4-phenoxybenzyl)aminocarbonyl]-4-[(hydroxyimino)methyl]-cyclobutane-3-carboxylic acid]
88%	CCCN(Cc1ccc(Oc2ccccc2)c(C)c1)C(=O)C1C(C(=O)O)C(C(=O)O)C1C(=O)N(CCC)Cc1ccc(Oc2ccccc2)c(C)c1 (stereo not drawn) [Example 89C, (1α,2β,3β,4α)-1-2-Di{N-propyl-[3-methyl-4-phenoxybenzyl]aminocarbonyl}cyclobutane-3,4-dicarboxylic acid]
58%	CCCN(Cc1ccc(Oc2ccccc2)cc1)C(=O)[C@@H]1[C@H](C(=O)C=[N+]=[N-])[C@@H](C(=O)C=[N+]=[N-])[C@H]1C(=O)N(CCC)Cc1ccc(Oc2ccccc2)cc1 (relative stereo) [Example 102, (1α,2β,3β,4α)-3,4-Bis(diazoacetyl)-1,2-di[N-propyl-N-(4-phenoxybenzyl)aminocarbonyl]cyclobutane]
86%	O=C(O)[C@H]1[C@H](C(=O)O)[C@H](C(=O)N(CCc2ccccc2)Cc2ccc(Oc3ccccc3)cc2)[C@H]1C(=O)N(CCc1ccccc1)Cc1ccc(Oc2ccccc2)cc1 [Example 56, (1α,2β,3β,4α)-1,2-Di[N-(4-phenoxybenzyl)-N-phenethylaminocarbonyl] cyclobutane-3,4-dicarboxylic acid]
89%	CCCN(Cc1ccc(Oc2ccco2)cc1)C(=O)C1C(C(=O)O)C(C(=O)O)C1C(=O)N(CCC)Cc1ccc(Oc2ccco2)cc1 (centres unmarked) [Example 84G]
89%	C[C@@H](c1ccccc1)N(Cc1ccc(Oc2ccccc2)cc1)C(=O)[C@H]1[C@@H](C(=O)O)[C@H](C(=O)O)[C@@H]1C(=O)N(Cc1ccc(Oc2ccccc2)cc1)[C@@H](C)c1ccccc1 [Example 34]
59%	CCCN(C(=O)C1C(C(=O)O)C(C(=O)O)C1C(=O)N(CCC)c1ccc(Oc2ccccc2)cc1)c1ccc(Oc2ccccc2)cc1 (stereo not drawn) [Example 39C, (1α,2β,3β,4α)-1,2-Di[N-propyl-N-(4-phenoxyphenyl)aminocarbonyl]cyclobutane-3,4-dicarboxylic acid]
67%	O=C(O)[C@H]1[C@H](C(=O)O)[C@H](C(=O)N(Cc2ccc(Oc3ccccc3)cc2)C2CC2)[C@H]1C(=O)N(Cc1ccc(Oc2ccccc2)cc1)C1CC1 [Example 30, (1α,2β,3β,4α)-1,2-Di[N-cyclopropyl-N-(4-phenoxybenzyl)aminocarbonyl]cyclobutane-3,4-dicarboxylic acid]

Same assay, conditions: values marked * in Table 1: 1 µM test compound; rat liver microsomes, labelled farnesyl pyrophosphate, 10 minutes at 37 °C

inhibition at 1 µM	% Inhibition at 1 µM	Compound
57%	–	CCCN(Cc1ccc(Oc2ccccc2)cc1)C(=O)C1C(C=CC(=O)O)C(C(=O)O)C1C(=O)N(CCC)Cc1ccc(Oc2ccccc2)cc1 (centres unmarked) [Example 76B]
84%	–	CCCN(Cc1ccc(Sc2ccccc2)cc1)C(=O)C1C(C(=O)O)C(C(=O)O)C1C(=O)N(CCC)Cc1ccc(Sc2ccccc2)cc1 (stereo not drawn) [Example 68B, (1α,2β,3β,4α)-1,2-Di[N-propyl-N-(4-phenylthiobenzyl)aminocarbonyl]cyclobutane-3,4-dicarboxylic acid]
86%	–	CCCN(Cc1ccc(Oc2ccccc2)cc1)C(=O)[C@@H]1[C@H](C(=O)O)[C@@H](CC(=O)O)[C@H]1C(=O)N(CCC)Cc1ccc(Oc2ccccc2)cc1 (relative stereo) [Example 101C]
59%	–	C[C@H](c1ccccc1)N(Cc1ccc(Oc2ccccc2)cc1)C(=O)[C@H]1[C@@H](C(=O)O)[C@H](C(=O)O)[C@@H]1C(=O)N(Cc1ccc(Oc2ccccc2)cc1)[C@H](C)c1ccccc1 [Example 35]
51%	–	CCCN(Cc1ccc(Oc2ccccc2)cc1)C(=O)C1C(CCC(=O)O)C(C(=O)O)C1C(=O)N(CCC)Cc1ccc(Oc2ccccc2)cc1 (centres unmarked) [Example 77B]
56%	–	O=C(O)C1C(C(=O)O)C(C(=O)N(Cc2ccc(Oc3ccccc3)cc2)Cc2ccco2)C1C(=O)N(Cc1ccc(Oc2ccccc2)cc1)Cc1ccco1 (stereo not drawn) [Example 44, (1α,2β,3β,4α)-1,2-Di[N-(furan-2-ylmethyl)-N-(4-phenoxybenzyl)aminocarbonyl)cyclobutane-3,4-dicarboxylic acid]
–	21* %	(1α,2β,3β,4α)-1,2-Di[N-propyl-N-(4-phenoxybenzyl)aminocarbonyl]cyclobutane-3,4-dicarboxylic acid mono-d-Norleucine amide [Example 112]
80%	–	O=C(O)CC1C(CC(=O)O)C(C(=O)N(Cc2ccccc2)Cc2ccc(Oc3ccccc3)cc2)C1C(=O)N(Cc1ccccc1)Cc1ccc(Oc2ccccc2)cc1 (stereo not drawn) [Example 128F, (1α,2β,3β,4α)-1,2-Di{N-benzyl-N-[(4-phenoxy)benzyl]aminocarbonyl)cyclobutane-3,4-diacetic acid]
92%	–	O=C(O)C1C(C(=O)O)C(C(=O)N(Cc2ccc(Oc3ccccc3)cc2)CC2CC2)C1C(=O)N(Cc1ccc(Oc2ccccc2)cc1)CC1CC1 (single isomer, unassigned; (-)) [Example 129B, (-)-(1α,2β,3β,4α)-1,2-Di[N-cyclopropylmethyl-N-(4-phenoxybenzyl)aminocarbonyl]cyclobutane-3,4-dicarboxylic acid]
47%	–	O=C(O)C1C(C(=O)O)C(C(=O)N(CCF)Cc2ccc(Oc3ccccc3)cc2)C1C(=O)N(CCF)Cc1ccc(Oc2ccccc2)cc1 (stereo not drawn) [Example 43, (1α,2β,3β,4α)-1,2-Di[N-(2-fluoroethyl)-N-(4-phenoxybenzyl)aminocarbonyl]cyclobutane-3,4-dicarboxylic acid]
48%	–	CCCN(Cc1ccc(Oc2ccccc2)cc1)C(=S)C1C(C(=O)O)C(C(=O)O)C1C(=S)N(CCC)Cc1ccc(Oc2ccccc2)cc1 (stereo not drawn) [Example 130B, (1α,2β,3β,4α)-1,2-Di[N-propyl-N-(4-phenoxybenzyl)aminothiocarbonyl]cyclobutane-3,4-dicarboxylic acid]

Same assay, conditions: values marked * in Table 1: 1 µM test compound; rat liver microsomes, labelled farnesyl pyrophosphate, 10 minutes at 37 °C; 1 µM

% Inhibition at 1 µM	Compound
71* %	CCCCC(NC(=O)[C@@H]1[C@@H](C(=O)O)[C@@H](C(=O)N(CCC)Cc2ccc(Oc3ccccc3)cc2)[C@@H]1C(=O)N(CCC)Cc1ccc(Oc2ccccc2)cc1)C(=O)O (single isomer, unassigned) [Example 104B, (1α,2β,3β,4α)-1,2-Di[N-propyl-N-(4-phenoxybenzyl)aminocarbonyl]cyclobutane-3,4-dicarboxylic acid Mono-Norleucine Amide]
